The subject of the experiment is nude mice, A549 intrarenal xenograft, tumor weight change. The experiment in a line: NCI In Vivo Anticancer Drug Screen. Data for tumor model A549 Human Adenocarcinoma of Lung with characteristics of Type II Alveolar Epithelial cells (intrarenal inoculation) in NU/NU BALB/C (nude) mice. Conditions: endpoint: mean tumor weight change, schedule: Q04DX003 (ip), higher = larger tumour. In short, it runs like this: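 Mice bearing transplantable tumors were treated and survival or tumor size recorded. Values are given as treated-group measurement divided by vehicle-control measurement (T/C).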

[1] abbreviates: dose: 150.0 mg/kg/injection, vehicle: saline with Tween-80.
Setting [2] is: dose: 300.0 mg/kg/injection, vehicle: saline with Tween-80.

Several values for one entry are separate records, joined by “and”; a condition that tells them apart may be missing. Identical values can stand only once. Inconclusive results are not listed.

Here are results for six compounds from PubChem BioAssay AID278 (DTP/NCI, 2004).

Consider `COC(=O)C1(F)C(=O)NC(=O)NC1OC` (stereo not drawn), for which the T/C runs as follows: (dose: 400.0 mg/kg/injection, vehicle: Klucel (hydroxypropylcellulose) (HPC)) 115 % of control; (dose: 800.0 mg/kg/injection, vehicle: Klucel (hydroxypropylcellulose) (HPC)) 116 % of control; (dose: 1600.0 mg/kg/injection, vehicle: Klucel (hydroxypropylcellulose) (HPC)) 94 % of control.

For the compound `CCCCNP1(NCCCC)=NP(NCCCC)(NCCCC)=NP(NCCCC)(NCCCC)=NP(NCCCC)(NCCCC)=N1`, the T/C is, setting by setting: under setting [1], 111 % of control; under setting [2], 44 % of control.

On to `N[C@@H](Cc1c[nH]c2ccccc12)C(=O)Nc1nncs1`, for which the T/C is 74 % of control (dose: 150.0 mg/kg/injection, vehicle: suspension in saline); 67 % of control (dose: 300.0 mg/kg/injection, vehicle: suspension in saline); 70 % of control (dose: 600.0 mg/kg/injection, vehicle: suspension in saline).

On to `O=S(=O)(CCCCl)SCCCCl`, for which the T/C is, setting by setting: (dose: 40.0 mg/kg/injection, vehicle: suspension in saline) 81 % of control; (dose: 80.0 mg/kg/injection, vehicle: suspension in saline) 86 % of control; (dose: 160.0 mg/kg/injection, vehicle: suspension in saline) 105 % of control; (dose: 320.0 mg/kg/injection, vehicle: suspension in saline) 112 % of control.

Consider `c1ccc(OCC2CO2)c(OCC2CO2)c1` (stereo not drawn), for which the T/C runs as follows: (dose: 75.0 mg/kg/injection, vehicle: saline with Tween-80) 89 % of control; under setting [1], -20 % of control; under setting [2], 9 % of control.

In the case of `Cc1c(O)/c(=C\O)c2nc3c(=O)ccc(C(=O)NCCN(C)C)c3[nH]c2c1=O`, the T/C was 120 % of control (dose: 50.0 mg/kg/injection, vehicle: water); 48 % of control (dose: 100.0 mg/kg/injection, vehicle: water); 52 % of control and 75 % of control (dose: 120.0 mg/kg/injection, vehicle: water).
